Test results taken from PMC10914731, “Homo-BacPROTAC-induced degradation of ClpC1 as a strategy against drug-resistant mycobacteria” (Nature Communications, 2024).
≈ marks a conversion by molar mass, not a printed value. Where “and” joins values, the source holds several entries; their conditions need not be identical. Equal values may be shown once. Read-outs that look alike come from different tables or passages of the source.

Assays:
[1] = molecular target: ClpC1 NTD protein (M. tuberculosis) (Mycobacterium tuberculosis, UniProt P9WPC9); assay: biochemical; type: binding; conditions: for Kd: SPR
[2] = type: in vitro ADME, Mice; conditions: mouse, microsomes, pH 7.5
Procedure, shortened: (§1)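 Clearance, expressed as % liver blood flow (%Qh), derived by the well-stirred model from first-order half-lives. Depletion monitored by HPLC-MS/MS in acetonitrile-stopped samples over time; 37 °C, NADPH 1 mM, microsomes 0.5 mg/ml, compound 1 µmol/l, Tris-HCl pH 7.5 with MgCl2.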

[3] = tested on: Mycobacterium intracellulare; assay: microbe, parasite or virus in culture; type: cell-based
Msm 700084 = assay: microbe, parasite or virus in culture; type: cell-based
[4] = molecular target: endogenous ClpC1 in Msm #607 cells (Mycolicibacterium smegmatis, UniProt A0R574); type: cell-based, M. smegmatis
[5] = molecular target: ClpC1-NTD substrate, M. tuberculosis ClpC1P1P2 (Mycobacterium tuberculosis, UniProt P9WPC9); assay: biochemical; type: biochemical; conditions: read-out: DC50, Mean
Msm 607 = assay: microbe, parasite or virus in culture; type: cell-based
[6] = tested on: M. tuberculosis H37Rv (ATCC 27294); assay: microbe, parasite or virus in culture; type: cell-based
Mycobacterium fortuitum = assay: microbe, parasite or virus in culture; type: cell-based
[7] = type: in vitro ADME, Rat; conditions: rat, microsomes, pH 7.5
Procedure, shortened: as §1

[8] = tested on: non-replicating cells of Mtb H37Rv; type: cell-based, Mycobacterium tuberculosis
[9] = Experiment 2, three replicate columns

ClpC1 NTD protein (M. tuberculosis), sequence (P9WPC9 1-156, looked up, natural form): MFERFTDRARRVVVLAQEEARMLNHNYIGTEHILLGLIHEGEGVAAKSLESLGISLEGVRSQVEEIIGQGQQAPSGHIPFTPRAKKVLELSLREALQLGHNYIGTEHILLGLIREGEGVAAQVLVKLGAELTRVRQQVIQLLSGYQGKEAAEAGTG
endogenous ClpC1 in Msm #607 cells, sequence (A0R574 whole entry): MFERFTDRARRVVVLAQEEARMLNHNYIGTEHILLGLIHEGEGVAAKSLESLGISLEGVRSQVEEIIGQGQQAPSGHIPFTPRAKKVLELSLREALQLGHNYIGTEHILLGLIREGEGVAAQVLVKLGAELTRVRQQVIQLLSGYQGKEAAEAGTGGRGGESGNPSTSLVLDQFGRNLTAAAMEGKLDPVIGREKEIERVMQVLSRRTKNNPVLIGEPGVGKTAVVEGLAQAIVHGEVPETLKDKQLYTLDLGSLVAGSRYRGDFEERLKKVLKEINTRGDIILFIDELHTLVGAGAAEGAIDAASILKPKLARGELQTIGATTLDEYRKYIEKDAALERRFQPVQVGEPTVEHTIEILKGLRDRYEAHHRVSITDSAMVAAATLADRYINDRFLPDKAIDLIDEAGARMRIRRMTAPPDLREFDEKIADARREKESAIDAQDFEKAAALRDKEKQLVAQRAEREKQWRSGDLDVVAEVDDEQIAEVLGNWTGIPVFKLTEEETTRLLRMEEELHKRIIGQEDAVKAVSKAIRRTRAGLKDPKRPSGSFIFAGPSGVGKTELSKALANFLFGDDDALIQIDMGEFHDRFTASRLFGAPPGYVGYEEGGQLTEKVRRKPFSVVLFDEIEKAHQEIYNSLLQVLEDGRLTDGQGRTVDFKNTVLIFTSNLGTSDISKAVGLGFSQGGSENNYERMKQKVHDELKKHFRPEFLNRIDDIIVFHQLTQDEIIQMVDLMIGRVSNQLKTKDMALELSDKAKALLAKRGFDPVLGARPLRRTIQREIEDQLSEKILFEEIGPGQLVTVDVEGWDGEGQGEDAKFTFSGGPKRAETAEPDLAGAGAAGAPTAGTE
ClpC1-NTD substrate, M. tuberculosis ClpC1P1P2, sequence (P9WPC5 whole entry): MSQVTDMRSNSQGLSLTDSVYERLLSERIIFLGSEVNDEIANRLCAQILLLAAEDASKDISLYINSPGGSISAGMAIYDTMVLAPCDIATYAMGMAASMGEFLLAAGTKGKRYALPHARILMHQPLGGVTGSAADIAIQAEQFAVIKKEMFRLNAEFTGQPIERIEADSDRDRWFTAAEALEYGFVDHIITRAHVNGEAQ
ClpC1-NTD substrate, M. tuberculosis ClpC1P1P2, sequence (P9WPC9 whole entry): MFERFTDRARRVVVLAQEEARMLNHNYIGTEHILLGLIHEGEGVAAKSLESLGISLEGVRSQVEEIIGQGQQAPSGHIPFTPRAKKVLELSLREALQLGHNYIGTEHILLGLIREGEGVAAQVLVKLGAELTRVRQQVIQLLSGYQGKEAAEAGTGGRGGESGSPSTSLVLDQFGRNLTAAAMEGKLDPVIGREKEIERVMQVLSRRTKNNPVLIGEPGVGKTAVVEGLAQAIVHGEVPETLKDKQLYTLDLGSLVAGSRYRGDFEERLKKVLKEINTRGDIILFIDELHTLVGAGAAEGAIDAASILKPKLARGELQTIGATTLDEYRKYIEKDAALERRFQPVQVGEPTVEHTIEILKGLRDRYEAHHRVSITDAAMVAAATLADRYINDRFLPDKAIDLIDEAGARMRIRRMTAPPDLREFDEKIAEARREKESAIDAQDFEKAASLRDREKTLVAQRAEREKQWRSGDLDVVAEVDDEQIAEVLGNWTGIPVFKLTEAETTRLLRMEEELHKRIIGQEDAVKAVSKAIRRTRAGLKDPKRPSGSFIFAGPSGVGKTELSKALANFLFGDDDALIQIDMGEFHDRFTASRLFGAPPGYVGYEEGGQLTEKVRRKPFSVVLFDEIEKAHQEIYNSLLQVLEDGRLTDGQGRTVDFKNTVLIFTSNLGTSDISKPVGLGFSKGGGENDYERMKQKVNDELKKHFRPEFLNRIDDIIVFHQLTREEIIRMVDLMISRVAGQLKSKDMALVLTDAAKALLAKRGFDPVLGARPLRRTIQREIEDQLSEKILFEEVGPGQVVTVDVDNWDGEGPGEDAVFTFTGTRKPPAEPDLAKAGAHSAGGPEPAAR
ClpC1-NTD substrate, M. tuberculosis ClpC1P1P2, sequence (P9WPC3 whole entry, further chain): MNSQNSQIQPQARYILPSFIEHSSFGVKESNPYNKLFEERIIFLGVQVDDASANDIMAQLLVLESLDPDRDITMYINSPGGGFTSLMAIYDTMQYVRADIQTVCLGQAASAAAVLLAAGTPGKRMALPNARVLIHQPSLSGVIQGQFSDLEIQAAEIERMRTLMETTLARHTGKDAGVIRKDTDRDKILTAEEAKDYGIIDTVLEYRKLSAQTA

With `COC(c1ccccc1)C1NC(=O)C(C)NC(=O)C(CC(C)CO)N(C)C(=O)C(Cc2cn(C)c3ccccc23)NC(=O)C(Cc2cn(CCCCCn3cc(CC4NC(=O)C(CC(C)C)N(C)C(=O)C(C(C)C)NC(=O)C(C(OC)c5ccccc5)NC(=O)C(C)NC(=O)C(CC(C)CO)N(C)C(=O)C(Cc5cn(C)c6ccccc56)NC4=O)nn3)nn2)NC(=O)C(CC(C)C)N(C)C(=O)C(C(C)C)NC1=O` (stereo not shown) [Compound 12] the Kd ([1]; individual measurements (source data), listed as 12 (UdSBI-4377), read-out: KD ClpC1-NTD) was 0.169 nM and 0.284 nM and 0.283 nM and 0.407 nM and 0.412 nM and 0.327 nM and 0.181 nM and 0.203 nM and 0.279 nM, the Kd ([1]; read-out: ClpC1-NTD KD Mean ± SD) was 0.28 ± 0.08 nM and the “improvement of SPR KD to ClpC1-NTD, dimer versus monomer (factor)” value ([1]; monomeric 10 to dimeric 12 / Homo-BacPROTACs versus monomeric compounds) was 10. For the same compound, the “Microsomal Stability Mice” value [2] was under 24 %Qh, the “Microsomal Stability Mouse QH” value [2] was under 24.2% and the MIC ([3]; Experiment 1, listed as 12 (UdSBI-4377), read-out: MIC Mycobacterium intracellulare) was over 50 µM. The “MIC (µg/ml) Mycobacterium intracellulare” value [3, 9] was over 99.02 µg/mL, the MIC ([3]; Experiment 2, three replicate columns, read-out: MIC (µM) Mycobacterium intracellulare) was over 50 µM and the MIC ([3]; Mycobacterium intracellulare, Experiment 1, read-out: MIC Mycobacterium intracellulare) was over 99 µg/mL. It also gave an MIC ([3]; Mycobacterium intracellulare, Experiment 2, three replicate columns, read-out: MIC (µM) Mycobacterium intracellulare) of over 50 µM, an MIC ([3]; Mycobacterium intracellulare, Experiment 2, three replicate columns, read-out: MIC (µg/ml) Mycobacterium intracellulare) of over 99 µg/mL and an MIC ([3]; Mycobacterium intracellulare, mean ± SD, read-out: MIC Mycobacterium intracellulare) of over 50 µM. It also gave an MIC (Msm 700084; Mycolicibacterium smegmatis, 700084, single determinations, read-out: Msm 700084 MIC) of over 50 µM, an MIC (Msm 700084; Mycolicibacterium smegmatis, 700084, read-out: MIC Msm 700084) of over 50 µM and a DC50 ([4]; read-out: DC50, Mean) of 170 nM. The DC50 ([4]; read-out: average DC50, endogenous ClpC1 degradation) was 170 ± 100 nM, the DC50 [5] was 7100 nM and the MIC (Msm 607; Mycolicibacterium smegmatis, 607, read-out: MIC Msm 607) was 0.9 ± 0.3 µM (≈ 1.78 µg/mL). The MIC (Msm 607; Mycolicibacterium smegmatis, 607, read-out: MIC Msm #607, individual example (Supplementary Table 11)) was 0.8 µM and 1.5 µg/mL, the MIC (Msm 607; Mycolicibacterium smegmatis, 607, read-out: Msm 607 MIC, single determinations) was 1.56 µM (≈ 3.09 µg/mL) and the MIC (Msm 607; Mycolicibacterium smegmatis, ATCC607, Set-1, read-out: MIC (Msm ATCC607) Set-1) was 0.78 µM and 1.54 µg/mL. For the same compound, the MIC (Msm 607; Mycolicibacterium smegmatis, ATCC607, Set-2, read-out: MIC (Msm ATCC607) Set-2) was 1.54 µM and 3.06 µg/mL, the MIC (Msm 607; Mycolicibacterium smegmatis, ATCC607, Set-3, done at a different day than Set 1 and Set 2, read-out: MIC (Msm ATCC607) Set-3) was 0.78 µM and 1.54 µg/mL and the MIC (Msm 607; Mycolicibacterium smegmatis, ATCC607, mean of 3 experiments ± SD, read-out: MIC including standard deviations (Msm ATCC607)) was 1.03 µM and 2.04 µg/mL. For the same compound, the “Msm 607 MIC” value (Msm 607; single determinations, listed as 12 (UdSBI-4377)) was 0.780 µM, the MIC ([6]; M. tuberculosis H37Rv 27294, single well replicates, read-out: MIC) was 0.098 µM (≈ 0.194 µg/mL) and the MIC ([6]; Mycobacterium tuberculosis, M. tuberculosis H37Rv 27294, single well replicates, read-out: MIC) was 0.098 µM (≈ 0.194 µg/mL). It also gave an MIC ([6]; Mycobacterium tuberculosis, M. tuberculosis H37Rv strain, read-out: MIC Mtb H37Rv Mean ± SD) of 0.1 µM (≈ 0.198 µg/mL), an MIC ([6]; Mycobacterium tuberculosis, Mtb H37Rv (Supplementary Table 2), read-out: MIC Mtb) of 0.1 µM (≈ 0.198 µg/mL) and an MIC ([6]; Mycobacterium tuberculosis, Mtb H37Rv, mean ± SD, n = 3 well replicates, read-out: MIC) of 0.1 µM (≈ 0.198 µg/mL). The MIC ([6]; Mycobacterium tuberculosis, Set 1, read-out: MIC (Mtb H37Rv) Set 1) was 0.05 µM and 0.095 µg/mL, the MIC ([6]; Mycobacterium tuberculosis, Set 2, read-out: MIC (Mtb H37Rv) Set 2) was 0.05 µM and 0.095 µg/mL and the MIC ([6]; Mycobacterium tuberculosis, Set 3, done at a different day than Set 1 and Set 2, read-out: MIC (Mtb H37Rv) Set 3) was 0.05 µM and 0.095 µg/mL. The MIC ([6]; Mycobacterium tuberculosis, individual example (Supplementary Table 11), read-out: MIC Mtb H37Rv) was 0.05 µM and 0.1 µg/mL, the MIC ([6]; Mycobacterium tuberculosis, individual measurements (source data), read-out: Mtb MIC) was 0.097 µM (≈ 0.192 µg/mL) and the MIC ([6]; Mycobacterium tuberculosis, mean of 3 experiments +/- SD, unit taken from the sets above in the same table, read-out: MIC data (Mtb H37Rv) (+/- SD)) was 0.05 µM and 0.1 µg/mL. The MIC ([6]; Mycobacterium tuberculosis, single determinations, read-out: Mtb MIC) was 0.097 µM (≈ 0.192 µg/mL), the MIC ([6]; Mycobacterium tuberculosis, value of the earlier manuscript version quoted in the peer review file, read-out: inhibition of the Mtb growth (MIC)) was 0.097 µM (≈ 0.192 µg/mL) and the MIC ([6]; individual measurements (source data), read-out: Mtb MIC) was 0.097 µM (≈ 0.192 µg/mL). For the same compound, the MIC (Mycobacterium fortuitum; Experiment 1, listed as 12 (UdSBI-4377), read-out: MIC Mycobacterium fortuitum) was over 50 µM, the “MIC (µg/ml) Mycobacterium fortuitum” value (Mycobacterium fortuitum; [9]) was over 99.02 µg/mL and the MIC (Mycobacterium fortuitum; Experiment 2, three replicate columns, read-out: MIC (µM) Mycobacterium fortuitum) was over 50 µM. It also gave an MIC (Mycobacterium fortuitum; Mycolicibacterium fortuitum, Experiment 1, read-out: MIC Mycobacterium fortuitum) of over 99 µg/mL, an MIC (Mycobacterium fortuitum; Mycolicibacterium fortuitum, Experiment 2, three replicate columns, read-out: MIC (µM) Mycobacterium fortuitum) of over 50 µM and an MIC (Mycobacterium fortuitum; Mycolicibacterium fortuitum, Experiment 2, three replicate columns, read-out: MIC (µg/ml) Mycobacterium fortuitum) of over 99 µg/mL. The MIC (Mycobacterium fortuitum; Mycolicibacterium fortuitum, mean ± SD, read-out: MIC Mycobacterium fortuitum) was over 50 µM, the “Microsomal Stability Rat” value [7] was under 23 %Qh and the “Microsomal Stability Rat QH” value [7] was under 23.1%. For the same compound, the “inhibitory activity on non-growing Mtb H37Rv” value [8] was “lost their inhibitory activity”.
